What was measured:
Assay type in all cases: cell-based
[1] = test system: Human Rhinovirus 16 (HRV16); test: H1-HeLa HRV-CTG 384-well assay, HRV16, Example X; conditions: Rhinovirus A, 96 h; H1-HeLa cells, HRV16 MOI 0.25, 4 days, Celltiter-Glo; read-out: EC50 H1-HeLa_HRV 16_HRV-CTG 384-well Assay (per Ex. X)
Description: (§1) Example X: H1-HeLa HRV-CTG 384-Well Assay
(§2) H1-Hela cell line (ATCC, Manassas, VA, Cat #CRL-1958) was maintained in Dulbecco's […] (DMEM) (Corning, New York, NY, Cat #15-018CM) supplemented with 10% fetal bovine serum (FBS) (Hyclone, Logan, UT, Cat #SH30071-03), and 1× Penicillin-Streptomycin-L-Glutamine (Corning, New York, NY, Cat #30-009-CI). Cells were passaged 2 times per week to maintain sub-confluent densities and were used for experiments at passage 5-30. The Human Rhinovirus 1B (HRV1B) (ATCC, Manassas, VA, Cat #VR-1645), Human Rhinovirus 14 (HRV14) (ATCC, Manassas, VA, Cat #VR-284), and Human Rhinovirus 16 (HRV16) (ATCC, Manassas, VA, Cat #BR-283) was obtained through ATCC. Viral infection was monitored by determining viability of H1-HeLa cells as described below.
(§3) Test molecules are prepared in 100% DMSO in 384-well polypropylene plates (Greiner, Monroe, NC, Cat #784201) with 8 compounds per plate in grouped replicates of 4 at 10 serially diluted concentrations (1:3). The serially diluted compounds were transferred to low dead volume Echo plates (Labcyte, Sunnyvale, CA, Cat #LP-0200).
(§4) The test compounds were spotted to 384-well assay plates (Greiner, Monroe, NC, Cat #781091) at 200 nL per well using an Echo acoustic dispenser (Labcyte, Sunnyvale, CA). H1-HeLa cells were harvested and suspended in DMEM (supplemented with 2% FBS and 1× Penicillin-Streptomycin-L-Glutamine) and seeded to the pre-spotted assay plates at 5,000 cells per well in 30 μL. HRV1B, HRV14, and HRV16 was diluted in DMEM (supplemented with 2% FBS and 1× Penicillin-Streptomycin-L-Glutamine) at 97.1 million Infectious Units (IU) per mL, 151 million IU per mL and 221 million IU per mL respectively. 10 μL of virus per well was added to the assay plates containing cells and compounds, for an MOI of 0.5, 1.0, and 0.25 respectively. The assay plates were incubated for 4 days at 37° C. and 5% CO2. At the end of incubation, Celltiter-Glo (Promega, Madison, WI, Cat #G7573) was prepared. The assay plates and Celltiter-Glo reagent were equilibrated to room temperature for at least 15 minutes. 40 μL per well of Celltiter-Glo reagent was added and the plates were incubated at room temperature for 15 minutes before reading the luminescence signal on an EnVision multimode plate reader (Perkin Elmer, Waltham, MA). Rupintrivir was used as positive control and DMSO was used as negative control. Values were normalized to the positive and negative controls (as 0% and 100% replication, respectively) and data was fitted using non-linear regression analysis by Gilead's dose response tool. The EC50 value for each compound was defined as the concentration reducing viral replication by 50%.

[2] = test system: Human Rhinovirus 1B (HRV1B); test: H1-HeLa HRV-CTG 384-well assay, HRV1B, Example X; conditions: Rhinovirus A, 96 h; H1-HeLa cells, HRV1B MOI 0.5, 4 days, Celltiter-Glo; read-out: EC50 H1-HeLa_HRV 1B_HRV-CTG 384-well Assay (per Ex. X)
Description: as §1, §2, §3, §4

[3] = test system: Respiratory syncytial virus recombinant with luciferase (RSV-Luc5); test: HEp-2 RSV-Luc5 384-well assay (EC50 RSVFLUC Hep2-384 v2), Example V; conditions: human respiratory syncytial virus, HEp-2, 72 h, read-out: EC50 RSV FLuc Hep-2 384 V2 (per Ex. V)
Description: Example V: HEp-2 RSV-Luc5 384-Well Assay (EC50 RSVFLUC Hep2-384 v2)
HEp-2 cell line was purchased from ATCC (Manassas, VA Cat #CCL-23) and maintained in Dulbecco's […] (DMEM) (Corning, New York, NY, Cat #15-018CM) supplemented with 10% fetal bovine serum (FBS) (Hyclone, Logan, UT, Cat #SH30071-03) and 1× Penicillin-Streptomycin-L-Glutamine (Corning, New York, NY, Cat #30-009-C1). Cells were passaged 2 times per week to maintain sub-confluent densities and were used for experiments at passage 5-20. Respiratory syncytial virus recombinant with luciferase (RSV-Luc5) (≥1×107 TCID50/ml) was purchased from Microbiologics (Saint Cloud, MN). Viral replication was determined in HEp-2 cells in the following manner.
as §3, with “Compounds” for “Test molecules”
The test compounds were spotted to 384-well assay plates (Greiner, Monroe, NC, Cat #781091) at 200 nL per well. HEp-2 cells were harvested and suspended in DMEM (supplemented with 10% FBS and 1× Penicillin-Streptomycin-L-Glutamine) and seeded to the pre-spotted assay plates at 4,000 cells per well in 30 μL. RSV-Luc5 viruses were diluted in DMEM (supplemented with 10% FBS and 1× Penicillin-Streptomycin-L-(Glutamine) at 200,000 Infectious Units (IU) per mL and 10 μL per well was added to the assay plates containing cells and compounds, for an MOI=0.5. The assay plates were incubated for 3 days at 37° C. and 5% CO2. At the end of incubation, One-Glo reagent (Promega, Madison, WI, Cat #E6120) was prepared. The assay plates and One-Glo reagent were equilibrated to room temperature for at least 15 minutes. 40 μL per well of One-Glo reagent was added and the plates were incubated at room temp for 15 minutes before reading the luminescence signal on an EnVision multimode plate reader (Perkin Elmer, Waltham, MA). Remdesivir was used as positive control and DMSO was used as negative control. Values were normalized to the positive and negative controls (as 0% and 100% replication, respectively) and data was fitted using non-linear regression analysis by Gilead's dose response tool. The EC50 value for each compound was then determined as the concentration reducing the viral replication by 50%.

[4] = test system: Human Rhinovirus 14 (HRV14); test: H1-HeLa HRV-CTG 384-well assay, HRV14, Example X; conditions: Rhinovirus B, 96 h; H1-HeLa cells, HRV14 MOI 1.0, 4 days, Celltiter-Glo; read-out: EC50 H1-HeLa_HRV 14_HRV-CTG 384-well Assay (per Ex. X)
Description: as §1, §2, §3, §4

CCC(CC)OC(=O)OC[C@@]1(C#N)O[C@@H](c2ccc3c(N)ncnn23)[C@H](O)[C@@H]1O [Compound 14, ((2R,3S,4R,5S)-5-(4-aminopyrrolo[2,1-f][1,2,4]triazin-7-yl)-2-cyano-3,4-dihydroxytetrahydrofuran-2-yl)methyl pentan-3-yl carbonate]
EC50 [1]: 50 µM
EC50 [2]: 22.9 µM
EC50 [3]: 31.6 µM
EC50 [4]: 44.5 µM

CC(C)COC(=O)OC[C@@]1(C#N)O[C@@H](c2ccc3c(N)ncnn23)[C@@H]2OC(=O)O[C@@H]21 [Compound 15, ((3aS,4R,6S,6aS)-6-(4-aminopyrrolo[2,1-f][1,2,4]triazin-7-yl)-4-cyano-2-oxotetrahydrofuro[3,4-d][1,3]dioxol-4-yl)methyl isobutyl carbonate]
EC50 [1]: 9.15 µM
EC50 [2]: 7.05 µM
EC50 [3]: 14.4 µM
EC50 [4]: 7.55 µM

CC(C)COC(=O)Nc1ncnn2c([C@@H]3O[C@](C#N)(CO)[C@@H](O)[C@H]3O)ccc12 [Compound 16, Isobutyl (7-((2S,3R,4S,5R)-5-cyano-3,4-dihydroxy-5-(hydroxymethyl)tetrahydrofuran-2-yl)pyrrolo[2,1-f][1,2,4]triazin-4-yl)carbamate]
EC50 [1]: 50 µM
EC50 [2]: 50 µM
EC50 [3]: 50 µM
EC50 [4]: 50 µM

N#C[C@]1(COC(=O)OC2CCC2)O[C@@H](c2ccc3c(N)ncnn23)[C@H](O)[C@@H]1O [Compound 17, ((2R,3S,4R,5S)-5-(4-aminopyrrolo[2,1-f][1,2,4]triazin-7-yl)-2-cyano-3,4-dihydroxytetrahydrofuran-2-yl)methyl cyclobutyl carbonate]
EC50 [1]: 15.1 µM
EC50 [2]: 6.08 µM
EC50 [3]: 24.9 µM
EC50 [4]: 18.4 µM

CCCCCCOC(=O)OC[C@@]1(C#N)O[C@@H](c2ccc3c(N)ncnn23)[C@H](O)[C@@H]1O [Compound 19, ((2R,3S,4R,5S)-5-(4-aminopyrrolo[2,1-f][1,2,4]triazin-7-yl)-2-cyano-3,4-dihydroxytetrahydrofuran-2-yl)methyl hexyl carbonate]
EC50 [1]: 8.39 µM
EC50 [2]: 3.57 µM
EC50 [3]: 13.6 µM
EC50 [4]: 7 µM

CCCCCOC(=O)OC[C@@]1(C#N)O[C@@H](c2ccc3c(N)ncnn23)[C@H](O)[C@@H]1O [Compound 20, ((2R,3S,4R,5S)-5-(4-aminopyrrolo[2,1-f][1,2,4]triazin-7-yl)-2-cyano-3,4-dihydroxytetrahydrofuran-2-yl)methyl pentyl carbonate]
EC50 [1]: 9.58 µM
EC50 [2]: 4.69 µM
EC50 [3]: 13.7 µM
EC50 [4]: 12.3 µM

N#C[C@]1(COC(=O)OC2CCCCC2)O[C@@H](c2ccc3c(N)ncnn23)[C@H](O)[C@@H]1O [Compound 21, ((2R,3S,4R,5S)-5-(4-aminopyrrolo[2,1-f][1,2,4]triazin-7-yl)-2-cyano-3,4-dihydroxytetrahydrofuran-2-yl)methyl cyclohexyl carbonate]
EC50 [1]: 26.7 µM
EC50 [2]: 7.87 µM
EC50 [3]: 21.9 µM
EC50 [4]: 23.5 µM

CCOC(=O)OC[C@@]1(C#N)O[C@@H](c2ccc3c(N)ncnn23)[C@H](O)[C@@H]1O [Compound 22, ((2R,3S,4R,5S)-5-(4-aminopyrrolo[2,1-f][1,2,4]triazin-7-yl)-2-cyano-3,4-dihydroxytetrahydrofuran-2-yl)methyl ethyl carbonate]
EC50 [1]: 26.3 µM
EC50 [2]: 9.8 µM
EC50 [3]: 26.3 µM
EC50 [4]: 19.9 µM

N#C[C@]1(COC(=O)OC2CC2)O[C@@H](c2ccc3c(N)ncnn23)[C@H](O)[C@@H]1O [Compound 23, ((2R,3S,4R,5S)-5-(4-aminopyrrolo[2,1-f][1,2,4]triazin-7-yl)-2-cyano-3,4-dihydroxytetrahydrofuran-2-yl)methyl cyclopropyl carbonate]
EC50 [1]: 9.64 µM
EC50 [2]: 5.32 µM
EC50 [3]: 15.4 µM
EC50 [4]: 11.4 µM

N#C[C@]1(COC(=O)O[C@@H]2CCOC2)O[C@@H](c2ccc3c(N)ncnn23)[C@H](O)[C@@H]1O [Compound 24, ((2R,3S,4R,5S)-5-(4-aminopyrrolo[2,1-f][1,2,4]triazin-7-yl)-2-cyano-3,4-dihydroxytetrahydrofuran-2-yl)methyl ((R)-tetrahydrofuran-3-yl) carbonate]
EC50 [1]: 14.1 µM
EC50 [2]: 6.75 µM
EC50 [3]: 29.5 µM
EC50 [4]: 10.2 µM

CC[C@H](C)COC(=O)OC[C@@]1(C#N)O[C@@H](c2ccc3c(N)ncnn23)[C@H](O)[C@@H]1O [Compound 28, ((2R,3S,4R,5S)-5-(4-aminopyrrolo[2,1-f][1,2,4]triazin-7-yl)-2-cyano-3,4-dihydroxytetrahydrofuran-2-yl)methyl ((S)-2-methylbutyl) carbonate]
EC50 [1]: 9.51 µM
EC50 [2]: 3.53 µM
EC50 [3]: 18.2 µM
EC50 [4]: 8.73 µM

N#C[C@]1(COC(=O)OCc2ccccc2)O[C@@H](c2ccc3c(N)ncnn23)[C@H](O)[C@@H]1O [Compound 29, ((2R,3S,4R,5S)-5-(4-aminopyrrolo[2,1-f][1,2,4]triazin-7-yl)-2-cyano-3,4-dihydroxytetrahydrofuran-2-yl)methyl benzyl carbonate]
EC50 [1]: 9.86 µM
EC50 [2]: 3.26 µM
EC50 [3]: 19.6 µM
EC50 [4]: 8.06 µM

N#C[C@]1(COC(=O)OCC2CCCC2)O[C@@H](c2ccc3c(N)ncnn23)[C@H](O)[C@@H]1O [Compound 30, ((2R,3S,4R,5S)-5-(4-aminopyrrolo[2,1-f][1,2,4]triazin-7-yl)-2-cyano-3,4-dihydroxytetrahydrofuran-2-yl)methyl (cyclopentylmethyl) carbonate]
EC50 [1]: 8.88 µM
EC50 [2]: 3.12 µM
EC50 [3]: 23 µM
EC50 [4]: 5.58 µM
